Literature values in patent publication US9119854B2, “Methods for treating cancer using combination therapy” (CELGENE CORPORATION, priority 2013, dated 2015).

Tests used:
CRBN = CRBN (Homo sapiens, UniProt Q96SW2); settings: in vitro; Ito et al., Science 2010
BTK = BTK (Homo sapiens, UniProt Q06187); settings: enzymatic and cellular assays; the '610 publication
BTK, sequence (Q06187 whole entry, species assumed): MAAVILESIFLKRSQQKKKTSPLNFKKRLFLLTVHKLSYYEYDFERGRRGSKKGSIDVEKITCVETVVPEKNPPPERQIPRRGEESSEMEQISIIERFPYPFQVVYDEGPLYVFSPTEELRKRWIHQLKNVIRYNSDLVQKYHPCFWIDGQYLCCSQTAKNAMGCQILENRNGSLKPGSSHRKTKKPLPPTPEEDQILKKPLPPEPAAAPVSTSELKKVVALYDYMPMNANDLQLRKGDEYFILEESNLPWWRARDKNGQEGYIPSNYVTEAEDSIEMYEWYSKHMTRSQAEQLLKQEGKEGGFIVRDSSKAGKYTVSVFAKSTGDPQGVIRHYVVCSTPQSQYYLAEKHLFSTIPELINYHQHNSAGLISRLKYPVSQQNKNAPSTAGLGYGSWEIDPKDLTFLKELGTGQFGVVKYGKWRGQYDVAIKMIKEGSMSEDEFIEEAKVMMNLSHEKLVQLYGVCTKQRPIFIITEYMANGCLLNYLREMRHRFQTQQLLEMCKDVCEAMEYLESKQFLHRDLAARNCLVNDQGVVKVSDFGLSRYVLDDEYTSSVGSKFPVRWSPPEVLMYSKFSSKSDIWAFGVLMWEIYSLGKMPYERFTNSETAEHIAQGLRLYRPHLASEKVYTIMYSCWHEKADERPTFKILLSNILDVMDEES

CRBN, sequence (Q96SW2 whole entry): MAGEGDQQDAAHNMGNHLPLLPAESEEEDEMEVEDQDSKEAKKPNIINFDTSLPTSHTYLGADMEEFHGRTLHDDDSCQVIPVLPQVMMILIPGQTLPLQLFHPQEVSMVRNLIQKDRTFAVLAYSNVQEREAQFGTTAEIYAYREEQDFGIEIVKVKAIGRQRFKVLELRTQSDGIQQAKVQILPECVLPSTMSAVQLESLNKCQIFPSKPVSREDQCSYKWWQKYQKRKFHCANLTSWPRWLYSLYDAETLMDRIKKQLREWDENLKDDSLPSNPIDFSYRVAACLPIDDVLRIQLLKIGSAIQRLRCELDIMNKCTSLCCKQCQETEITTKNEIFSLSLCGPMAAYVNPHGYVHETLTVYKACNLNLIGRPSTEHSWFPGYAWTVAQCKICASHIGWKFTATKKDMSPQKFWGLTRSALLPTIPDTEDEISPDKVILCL
CRBN, sequence (Q16531 whole entry partner): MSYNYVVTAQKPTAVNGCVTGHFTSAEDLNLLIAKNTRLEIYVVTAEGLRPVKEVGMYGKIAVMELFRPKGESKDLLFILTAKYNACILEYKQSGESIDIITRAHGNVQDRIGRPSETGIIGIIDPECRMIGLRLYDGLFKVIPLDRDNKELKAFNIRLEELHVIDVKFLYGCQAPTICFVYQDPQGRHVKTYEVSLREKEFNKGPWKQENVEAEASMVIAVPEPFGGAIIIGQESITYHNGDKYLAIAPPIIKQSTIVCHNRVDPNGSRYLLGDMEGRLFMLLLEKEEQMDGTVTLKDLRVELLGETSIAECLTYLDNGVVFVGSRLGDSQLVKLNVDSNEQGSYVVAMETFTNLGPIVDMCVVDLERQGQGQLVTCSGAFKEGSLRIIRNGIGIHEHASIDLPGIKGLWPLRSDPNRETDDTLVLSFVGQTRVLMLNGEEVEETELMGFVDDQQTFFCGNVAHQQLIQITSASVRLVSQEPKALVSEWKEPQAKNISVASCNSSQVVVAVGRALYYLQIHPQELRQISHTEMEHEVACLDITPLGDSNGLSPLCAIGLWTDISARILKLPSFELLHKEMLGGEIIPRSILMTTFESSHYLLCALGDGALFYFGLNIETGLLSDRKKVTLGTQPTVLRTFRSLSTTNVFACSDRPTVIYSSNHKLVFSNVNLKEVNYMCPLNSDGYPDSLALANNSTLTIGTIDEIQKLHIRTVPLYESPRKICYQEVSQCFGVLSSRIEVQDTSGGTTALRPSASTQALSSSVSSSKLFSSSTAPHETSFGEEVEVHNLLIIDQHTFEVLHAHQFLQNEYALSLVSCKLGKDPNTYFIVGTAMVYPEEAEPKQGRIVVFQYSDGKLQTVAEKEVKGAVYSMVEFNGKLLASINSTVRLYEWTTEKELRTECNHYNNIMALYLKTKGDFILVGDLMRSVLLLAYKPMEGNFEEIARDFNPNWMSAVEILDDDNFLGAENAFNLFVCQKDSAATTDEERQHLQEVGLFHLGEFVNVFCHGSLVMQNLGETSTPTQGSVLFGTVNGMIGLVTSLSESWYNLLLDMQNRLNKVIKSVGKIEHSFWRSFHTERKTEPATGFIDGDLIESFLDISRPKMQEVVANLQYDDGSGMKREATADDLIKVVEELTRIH
CRBN, sequence (Q13619 whole entry partner): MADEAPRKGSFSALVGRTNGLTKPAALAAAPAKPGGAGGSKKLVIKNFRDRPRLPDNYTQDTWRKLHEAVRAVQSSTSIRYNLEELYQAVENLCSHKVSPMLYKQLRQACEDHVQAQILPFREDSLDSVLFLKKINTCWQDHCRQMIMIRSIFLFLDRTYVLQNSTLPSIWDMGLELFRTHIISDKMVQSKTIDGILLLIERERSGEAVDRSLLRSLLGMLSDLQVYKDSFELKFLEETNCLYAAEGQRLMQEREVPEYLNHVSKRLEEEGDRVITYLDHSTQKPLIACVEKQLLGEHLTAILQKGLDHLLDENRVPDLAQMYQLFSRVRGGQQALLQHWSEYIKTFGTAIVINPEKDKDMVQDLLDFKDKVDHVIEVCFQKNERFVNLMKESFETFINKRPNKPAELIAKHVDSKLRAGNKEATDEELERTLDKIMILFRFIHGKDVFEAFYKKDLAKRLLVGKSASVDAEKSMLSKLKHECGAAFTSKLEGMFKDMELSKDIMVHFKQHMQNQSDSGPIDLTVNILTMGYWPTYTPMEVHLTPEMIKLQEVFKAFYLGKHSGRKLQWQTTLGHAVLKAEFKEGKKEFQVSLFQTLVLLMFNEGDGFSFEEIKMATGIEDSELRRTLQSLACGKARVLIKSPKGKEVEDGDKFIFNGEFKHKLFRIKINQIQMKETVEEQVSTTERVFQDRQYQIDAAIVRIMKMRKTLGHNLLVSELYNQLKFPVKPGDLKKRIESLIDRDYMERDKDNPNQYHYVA
CRBN, sequence (P62877 whole entry partner): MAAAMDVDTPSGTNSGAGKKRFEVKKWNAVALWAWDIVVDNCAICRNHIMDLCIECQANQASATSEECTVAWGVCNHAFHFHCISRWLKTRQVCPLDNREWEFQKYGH

auto-ubiquitination of CRBN (CRBN)	inhibition of BTK (BTK)	SMILES	B-cell proliferation and activation (B-cell)
able to inhibit	–	O=C1CCC(N2C(=O)c3ccccc3C2=O)C(=O)N1 (stereo not drawn) [thalidomide]	–
–	covalent, irreversible inhibition	C=CC(=O)Nc1cccc(Nc2nc(Nc3ccc(OCCOC)cc3)ncc2F)c1 [Compound AA, N-(3-(5-fluoro-2-(4-(2-methoxyethoxy)phenylamino)pyrimidin-4-ylamino)phenyl)acrylamide]	found to inhibit
